Data as given in ChEMBL document CHEMBL1201862, “PubChem BioAssay data set” (2004).
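Compound exposure: 48 hours, 5 concentrations, 96-well plates. At the GI50, growth is halved.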 Activity calls are given as the source filed them. Cut-off read from the data, not from the text of the source: active = GI50 up to about 1.1 µM and inactive = higher.

Experiments:
Assay in all cases: NCI tumour cell line growth inhibition, 48 h
[1] = tested on: 786-0
[2] = tested on: A498
[3] = tested on: A549
[4] = tested on: ACHN
[5] = tested on: BT-549
[6] = tested on: CAKI-1
[7] = tested on: CCRF-CEM
[8] = tested on: DU-145
[9] = tested on: EKVX
[10] = tested on: HCT-116
[11] = tested on: HCT-15
[12] = tested on: HL-60
[13] = tested on: HOP-62
[14] = tested on: HOP-92
[15] = tested on: HT-29
[16] = tested on: Hs-578T
[17] = tested on: IGROV-1
[18] = tested on: K562
[19] = tested on: LOX IMVI
[20] = tested on: M14
[21] = tested on: MDA-MB-231
[22] = tested on: MDA-N
[23] = tested on: MOLT-4
[24] = tested on: Malme-3M
[25] = tested on: NCI-H23
[26] = tested on: NCI-H460
[27] = tested on: NCI-H522
[28] = tested on: NCI/ADR-RES
[29] = tested on: OVCAR-3
[30] = tested on: OVCAR-4
[31] = tested on: OVCAR-5
[32] = tested on: OVCAR-8
[33] = tested on: PC-3
[34] = tested on: RPMI-8226
[35] = tested on: RXF 393
[36] = tested on: SF-268
[37] = tested on: SF-295
[38] = tested on: SK-MEL-28
[39] = tested on: SK-MEL-2
[40] = tested on: SK-MEL-5
[41] = tested on: SN12C
[42] = tested on: SNB-19
[43] = tested on: SR
[44] = tested on: SW-620
[45] = tested on: T47D
[46] = tested on: TK-10
[47] = tested on: U-251
[48] = tested on: UACC-257
[49] = tested on: UACC-62
[50] = tested on: UO-31
[51] = tested on: COLO 205
[52] = tested on: HCC 2998
[53] = tested on: KM12
[54] = tested on: MCF7
[55] = tested on: MDA-MB-435
[56] = tested on: NCI-H226
[57] = tested on: SF-539
[58] = tested on: SK-OV-3
[59] = tested on: SNB-75

In the case of `Cc1ccc(S(=O)(=O)OCC(=O)O)cc1`, the GI50 [1] is reported as > 100 µM (inactive), the GI50 [2] is reported as > 100 µM (inactive) and the GI50 [3] is reported as > 100 µM (inactive). For the same compound, the GI50 [4] was > 100 µM (inactive), the GI50 [5] was > 100 µM (inactive) and the GI50 [6] was > 100 µM (inactive). The GI50 [7] was > 100 µM (inactive), the GI50 [8] was > 100 µM (inactive) and the GI50 [9] was > 100 µM (inactive). For the same compound, the GI50 [10] was > 100 µM (inactive), the GI50 [11] was greater than 100 µM and the GI50 [12] was > 100 µM (inactive). The GI50 [13] was > 100 µM (inactive), the GI50 [14] was > 100 µM (inactive) and the GI50 [15] was > 100 µM (inactive). The GI50 [16] was > 100 µM (inactive), the GI50 [17] was > 100 µM (inactive) and the GI50 [18] was > 100 µM (inactive). The GI50 [19] was > 100 µM (inactive), the GI50 [20] was > 100 µM (inactive) and the GI50 [21] was > 100 µM (inactive). The GI50 [22] was > 100 µM (inactive), the GI50 [23] was > 100 µM (inactive) and the GI50 [24] was > 100 µM (inactive). The GI50 [25] was > 100 µM (inactive), the GI50 [26] was > 100 µM (inactive) and the GI50 [27] was > 100 µM (inactive). For the same compound, the GI50 [28] was > 100 µM (inactive), the GI50 [29] was > 100 µM (inactive) and the GI50 [30] was > 100 µM (inactive). The GI50 [31] was > 100 µM (inactive), the GI50 [32] was > 100 µM (inactive) and the GI50 [33] was > 100 µM (inactive). The GI50 [34] was > 100 µM (inactive), the GI50 [35] was > 100 µM (inactive) and the GI50 [36] was > 100 µM (inactive). For the same compound, the GI50 [37] was > 100 µM (inactive), the GI50 [38] was > 100 µM (inactive) and the GI50 [39] was > 100 µM (inactive). For the same compound, the GI50 [40] was > 100 µM (inactive), the GI50 [41] was > 100 µM (inactive) and the GI50 [42] was > 100 µM (inactive). The GI50 [43] was > 100 µM (inactive), the GI50 [44] was > 100 µM (inactive) and the GI50 [45] was > 100 µM (inactive). For the same compound, the GI50 [46] was > 100 µM (inactive), the GI50 [47] was > 100 µM (inactive) and the GI50 [48] was > 100 µM (inactive). The GI50 [49] was > 100 µM (inactive) and the GI50 [50] was > 100 µM (inactive).

`Nc1c(OCC(=O)O)ccc2cc(S(=O)(=O)O)ccc12` was tested, and the GI50 [1] was > 100 µM (inactive), the GI50 [2] was > 100 µM (inactive) and the GI50 [3] was > 100 µM (inactive). The GI50 [4] was > 100 µM (inactive), the GI50 [5] was > 100 µM (inactive) and the GI50 [6] was > 100 µM (inactive). The GI50 [7] was > 100 µM (inactive), the GI50 [51] was > 100 µM (inactive) and the GI50 [8] was > 100 µM (inactive). For the same compound, the GI50 [52] was > 100 µM (inactive), the GI50 [10] was > 100 µM (inactive) and the GI50 [11] was greater than 100 µM. The GI50 [12] was > 100 µM (inactive), the GI50 [13] was > 100 µM (inactive) and the GI50 [16] was > 100 µM (inactive). The GI50 [17] was > 100 µM (inactive), the GI50 [18] was > 100 µM (inactive) and the GI50 [53] was > 100 µM (inactive). The GI50 [19] was > 100 µM (inactive), the GI50 [20] was > 100 µM (inactive) and the GI50 [54] was > 100 µM (inactive). For the same compound, the GI50 [21] was > 100 µM (inactive), the GI50 [55] was > 100 µM (inactive) and the GI50 [22] was > 100 µM (inactive). For the same compound, the GI50 [24] was > 100 µM (inactive), the GI50 [56] was > 100 µM (inactive) and the GI50 [25] was > 100 µM (inactive). For the same compound, the GI50 [26] was > 100 µM (inactive), the GI50 [27] was > 100 µM (inactive) and the GI50 [28] was > 100 µM (inactive). For the same compound, the GI50 [29] was > 100 µM (inactive), the GI50 [30] was > 100 µM (inactive) and the GI50 [32] was > 100 µM (inactive). For the same compound, the GI50 [33] was > 100 µM (inactive), the GI50 [34] was > 100 µM (inactive) and the GI50 [35] was > 100 µM (inactive). The GI50 [36] was > 100 µM (inactive), the GI50 [37] was > 100 µM (inactive) and the GI50 [57] was > 100 µM (inactive). The GI50 [38] was > 100 µM (inactive), the GI50 [39] was > 100 µM (inactive) and the GI50 [40] was > 100 µM (inactive). The GI50 [58] was > 100 µM (inactive), the GI50 [41] was > 100 µM (inactive) and the GI50 [42] was > 100 µM (inactive). For the same compound, the GI50 [59] was > 100 µM (inactive), the GI50 [44] was > 100 µM (inactive) and the GI50 [45] was > 100 µM (inactive). For the same compound, the GI50 [46] was > 100 µM (inactive), the GI50 [47] was > 100 µM (inactive) and the GI50 [48] was > 100 µM (inactive). The GI50 [49] was > 100 µM (inactive) and the GI50 [50] was > 100 µM (inactive).
